Results on one molecule are retold here after ChEMBL document CHEMBL4376816, “Discovery of the Oral Leukotriene C4 Synthase Inhibitor (1S,2S)-2-({5-[(5-Chloro-2,4-difluorophenyl)(2-fluoro-2-methylpropyl)amino]-3-methoxypyrazin-2-yl}carbonyl)cyclopropanecarboxylic Acid (AZD9898) as a New Treatment for Asthma” (J Med Chem, 2019).

A short description of series [1]: Fraction unbound in Beagle dog plasma by equilibrium dialysis based LC-MS analysis. In kind it is ADME, cell-free, Canis lupus familiaris.
A short description of series [2]: Effective half life in Han Wistar rat at 0.5 mg/kg, iv or 1 mg/kg, po after 24 hrs. In kind it is ADME, organism-based. Particulars: in vivo, read-out: t1/2eff (converted); call rule not given here.
A short description of series [3]: Octanol/Sodium phosphate buffer partition coefficient, log D of compound at pH 7.4 at 1 mg incubated for overnight under shaking condition by LC-MS/MS analysis. In kind it is physicochemical.
The nature of series [4]: Thermodynamic solubility of compound in pH 7.4 PBS at 1 mg/ml incubated for 24 hrs under shaking condition by LC-MS/MS analysis. The note with it: read-out: Therm_solubility. In kind it is physicochemical.
Series [5] can be described thus: Fraction unbound in cynomolgus monkey plasma by equilibrium dialysis based LC-MS analysis. In kind it is ADME, cell-free, Macaca fascicularis.
Series [6] in a line: Clearance in cynomolgus monkey at 1 mg/kg, iv or 2 mg/kg, po after 48 hrs. In kind it is ADME, organism-based, Macaca fascicularis. The note with it: in vivo.
Series [7] is described as follows: Volume of distribution at steady state in Han Wistar rat at 0.5 mg/kg, iv or 1 mg/kg, po after 24 hrs. In kind it is ADME, organism-based. The note with it: in vivo, read-out: Vdss.
Series [8] in a line: Volume of distribution at steady state in cynomolgus monkey at 1 mg/kg, iv or 2 mg/kg, po after 48 hrs. In kind it is ADME, organism-based, Macaca fascicularis. The note with it: in vivo, read-out: Vdss.
The nature of series [9]: Displacement of [3H]-GABA/[3]-muscimol from GABA gated chloride channel in Sprague-Dawley rat cortical synoptic membranes by liquid scintillation analysis.
The target of series [10] is T1, Solute carrier organic anion transporter family member 1B1 (Homo sapiens, UniProt Q9Y6L6).
T1 sequence (Q9Y6L6 whole entry): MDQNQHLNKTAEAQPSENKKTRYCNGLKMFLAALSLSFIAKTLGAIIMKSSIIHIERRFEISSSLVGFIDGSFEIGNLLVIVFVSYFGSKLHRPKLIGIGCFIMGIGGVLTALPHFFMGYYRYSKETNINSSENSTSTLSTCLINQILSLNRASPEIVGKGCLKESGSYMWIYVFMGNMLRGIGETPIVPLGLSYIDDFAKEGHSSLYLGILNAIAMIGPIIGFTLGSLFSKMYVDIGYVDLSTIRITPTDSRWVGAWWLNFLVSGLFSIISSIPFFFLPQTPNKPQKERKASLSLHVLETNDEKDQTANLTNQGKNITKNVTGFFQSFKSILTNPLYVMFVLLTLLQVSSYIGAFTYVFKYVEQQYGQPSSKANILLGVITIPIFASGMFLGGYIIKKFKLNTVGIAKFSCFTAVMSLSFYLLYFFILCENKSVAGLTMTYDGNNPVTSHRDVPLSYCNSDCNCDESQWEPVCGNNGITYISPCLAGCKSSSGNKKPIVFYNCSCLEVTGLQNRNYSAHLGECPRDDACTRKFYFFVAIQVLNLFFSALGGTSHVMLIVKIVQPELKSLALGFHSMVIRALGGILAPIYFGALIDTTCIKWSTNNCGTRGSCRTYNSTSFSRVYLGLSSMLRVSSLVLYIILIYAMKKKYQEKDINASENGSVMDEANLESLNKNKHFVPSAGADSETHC
The series is described as follows: Inhibition of OATP1B1 (unknown origin) expressed in HEK293 cells measured after 0.5 to 20 mins by scintillation counting analysis. In kind it is ADME, cell-based.

The target in another series is Cytochrome P450 2C9 (Homo sapiens, UniProt P11712). The series is described as follows: Inhibition of recombinant human CYP2C9 expressed in Escherichia coli using coumarin based substrate by fluorescence assay. In kind it is ADME.
In another series the target is Cytochrome P450 3A4 (Homo sapiens, UniProt P08684). The series is described as follows: Inhibition of recombinant human CYP3A4 expressed in Escherichia coli using coumarin based substrate by fluorescence assay. In kind it is ADME.
The target in a further series is Cytochrome P450 2D6 (Homo sapiens, UniProt P10635). The series is described as follows: Inhibition of recombinant human CYP2D6 using coumarin based substrate by fluorescence assay. In kind it is ADME.
In the next series the test system is Blood. The series is described as follows: Preservation of LXA4 level in calcium ionophore A23187-stimulated healthy human whole blood preincubated for 30 mins followed by calcium ionophore A23187 stimulation and measured after 60 mins by LC-MS analysis. In kind it is functional, tissue-based.
In series [11] the target is Sodium channel protein type 5 subunit alpha (Homo sapiens, UniProt Q14524). The series is described as follows: Inhibition of human Nav1.5 expressed in CHOK1 cells at < 33 uM at -90 mV holding potential by Ionwork-based analysis. In kind it is cell-based.
The target in series [12] is T2, Potassium voltage-gated channel subfamily KQT member 1 (Homo sapiens, UniProt P51787).
T2 sequence (P51787 whole entry): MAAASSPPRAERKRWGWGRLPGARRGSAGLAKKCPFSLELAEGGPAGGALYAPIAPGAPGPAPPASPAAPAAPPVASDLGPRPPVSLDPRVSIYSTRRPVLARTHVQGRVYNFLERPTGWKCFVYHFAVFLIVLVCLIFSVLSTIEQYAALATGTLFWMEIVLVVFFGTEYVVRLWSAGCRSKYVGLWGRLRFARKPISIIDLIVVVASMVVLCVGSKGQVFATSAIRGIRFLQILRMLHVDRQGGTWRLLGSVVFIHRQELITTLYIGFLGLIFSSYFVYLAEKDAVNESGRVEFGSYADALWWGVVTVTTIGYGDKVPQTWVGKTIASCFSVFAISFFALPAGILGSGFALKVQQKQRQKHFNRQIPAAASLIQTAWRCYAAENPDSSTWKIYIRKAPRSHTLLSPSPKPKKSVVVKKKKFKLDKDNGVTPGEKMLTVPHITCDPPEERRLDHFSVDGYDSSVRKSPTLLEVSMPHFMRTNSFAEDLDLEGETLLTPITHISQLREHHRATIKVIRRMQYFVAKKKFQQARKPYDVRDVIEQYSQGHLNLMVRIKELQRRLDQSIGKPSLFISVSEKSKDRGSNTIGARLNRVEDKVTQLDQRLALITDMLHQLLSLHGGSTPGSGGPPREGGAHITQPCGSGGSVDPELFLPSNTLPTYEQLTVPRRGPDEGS
The series is described as follows: Inhibition of human KvLQT1 expressed in CHOK1 cells at < 33 uM at -80 mV holding potential by Ionwork-based analysis. In kind it is cell-based.

In series [13] the target is Potassium voltage-gated channel subfamily E member 1 (Homo sapiens, UniProt P15382). The series is described as follows: Inhibition of human minK expressed in CHOK1 cells at < 33 uM at -80 mV holding potential by Ionwork-based analysis. In kind it is cell-based.
Series [14] concerns the target T3, Leukotriene C4 synthase (Homo sapiens) (UniProt Q16873).
T3 sequence (whole entry): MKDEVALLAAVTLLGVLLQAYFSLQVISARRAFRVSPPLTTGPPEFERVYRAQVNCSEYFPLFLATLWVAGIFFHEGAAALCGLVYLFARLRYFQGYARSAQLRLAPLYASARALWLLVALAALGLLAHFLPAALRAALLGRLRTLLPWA

≈ marks a conversion by molar mass, not a printed value.

Cytochrome P450 2D6, sequence (P10635 whole entry): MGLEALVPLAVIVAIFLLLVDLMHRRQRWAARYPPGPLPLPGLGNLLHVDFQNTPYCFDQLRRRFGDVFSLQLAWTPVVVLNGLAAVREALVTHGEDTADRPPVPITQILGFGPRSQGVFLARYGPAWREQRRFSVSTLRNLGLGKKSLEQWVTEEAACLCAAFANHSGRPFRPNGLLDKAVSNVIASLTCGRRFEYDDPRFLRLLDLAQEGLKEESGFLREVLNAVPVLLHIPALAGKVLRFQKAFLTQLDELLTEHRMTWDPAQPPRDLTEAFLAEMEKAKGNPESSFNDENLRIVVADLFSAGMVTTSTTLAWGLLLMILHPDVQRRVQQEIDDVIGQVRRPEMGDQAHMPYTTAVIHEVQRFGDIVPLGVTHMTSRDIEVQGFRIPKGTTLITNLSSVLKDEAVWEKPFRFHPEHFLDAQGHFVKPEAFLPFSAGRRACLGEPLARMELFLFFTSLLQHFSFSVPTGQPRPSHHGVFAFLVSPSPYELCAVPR
Cytochrome P450 3A4, sequence (P08684 whole entry): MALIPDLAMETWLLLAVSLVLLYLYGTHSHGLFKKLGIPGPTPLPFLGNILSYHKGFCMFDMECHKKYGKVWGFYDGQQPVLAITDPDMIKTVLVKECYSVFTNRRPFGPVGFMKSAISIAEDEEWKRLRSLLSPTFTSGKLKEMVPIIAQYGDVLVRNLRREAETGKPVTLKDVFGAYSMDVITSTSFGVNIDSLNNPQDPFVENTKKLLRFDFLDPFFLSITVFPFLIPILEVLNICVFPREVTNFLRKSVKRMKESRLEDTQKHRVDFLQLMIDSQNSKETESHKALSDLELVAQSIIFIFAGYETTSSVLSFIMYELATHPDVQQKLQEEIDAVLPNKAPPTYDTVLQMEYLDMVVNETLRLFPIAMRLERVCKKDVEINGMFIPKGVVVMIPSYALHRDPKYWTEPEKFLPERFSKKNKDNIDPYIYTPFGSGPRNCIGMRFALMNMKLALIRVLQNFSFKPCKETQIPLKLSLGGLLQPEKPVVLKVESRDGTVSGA
Cytochrome P450 2C9, sequence (P11712 whole entry): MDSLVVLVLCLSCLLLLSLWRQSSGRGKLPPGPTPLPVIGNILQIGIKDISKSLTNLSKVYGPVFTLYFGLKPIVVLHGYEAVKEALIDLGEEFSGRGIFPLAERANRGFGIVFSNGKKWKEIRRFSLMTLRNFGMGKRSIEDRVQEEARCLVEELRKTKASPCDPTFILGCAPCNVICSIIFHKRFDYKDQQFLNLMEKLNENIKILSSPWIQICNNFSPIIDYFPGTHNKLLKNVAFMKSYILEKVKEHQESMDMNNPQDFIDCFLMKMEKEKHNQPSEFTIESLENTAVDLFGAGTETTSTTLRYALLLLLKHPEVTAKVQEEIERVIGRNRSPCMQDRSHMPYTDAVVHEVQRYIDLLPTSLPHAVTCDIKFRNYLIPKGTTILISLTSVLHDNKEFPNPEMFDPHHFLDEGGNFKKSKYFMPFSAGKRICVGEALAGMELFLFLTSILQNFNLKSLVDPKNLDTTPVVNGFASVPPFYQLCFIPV
Sodium channel protein type 5 subunit alpha, sequence (Q14524 whole entry): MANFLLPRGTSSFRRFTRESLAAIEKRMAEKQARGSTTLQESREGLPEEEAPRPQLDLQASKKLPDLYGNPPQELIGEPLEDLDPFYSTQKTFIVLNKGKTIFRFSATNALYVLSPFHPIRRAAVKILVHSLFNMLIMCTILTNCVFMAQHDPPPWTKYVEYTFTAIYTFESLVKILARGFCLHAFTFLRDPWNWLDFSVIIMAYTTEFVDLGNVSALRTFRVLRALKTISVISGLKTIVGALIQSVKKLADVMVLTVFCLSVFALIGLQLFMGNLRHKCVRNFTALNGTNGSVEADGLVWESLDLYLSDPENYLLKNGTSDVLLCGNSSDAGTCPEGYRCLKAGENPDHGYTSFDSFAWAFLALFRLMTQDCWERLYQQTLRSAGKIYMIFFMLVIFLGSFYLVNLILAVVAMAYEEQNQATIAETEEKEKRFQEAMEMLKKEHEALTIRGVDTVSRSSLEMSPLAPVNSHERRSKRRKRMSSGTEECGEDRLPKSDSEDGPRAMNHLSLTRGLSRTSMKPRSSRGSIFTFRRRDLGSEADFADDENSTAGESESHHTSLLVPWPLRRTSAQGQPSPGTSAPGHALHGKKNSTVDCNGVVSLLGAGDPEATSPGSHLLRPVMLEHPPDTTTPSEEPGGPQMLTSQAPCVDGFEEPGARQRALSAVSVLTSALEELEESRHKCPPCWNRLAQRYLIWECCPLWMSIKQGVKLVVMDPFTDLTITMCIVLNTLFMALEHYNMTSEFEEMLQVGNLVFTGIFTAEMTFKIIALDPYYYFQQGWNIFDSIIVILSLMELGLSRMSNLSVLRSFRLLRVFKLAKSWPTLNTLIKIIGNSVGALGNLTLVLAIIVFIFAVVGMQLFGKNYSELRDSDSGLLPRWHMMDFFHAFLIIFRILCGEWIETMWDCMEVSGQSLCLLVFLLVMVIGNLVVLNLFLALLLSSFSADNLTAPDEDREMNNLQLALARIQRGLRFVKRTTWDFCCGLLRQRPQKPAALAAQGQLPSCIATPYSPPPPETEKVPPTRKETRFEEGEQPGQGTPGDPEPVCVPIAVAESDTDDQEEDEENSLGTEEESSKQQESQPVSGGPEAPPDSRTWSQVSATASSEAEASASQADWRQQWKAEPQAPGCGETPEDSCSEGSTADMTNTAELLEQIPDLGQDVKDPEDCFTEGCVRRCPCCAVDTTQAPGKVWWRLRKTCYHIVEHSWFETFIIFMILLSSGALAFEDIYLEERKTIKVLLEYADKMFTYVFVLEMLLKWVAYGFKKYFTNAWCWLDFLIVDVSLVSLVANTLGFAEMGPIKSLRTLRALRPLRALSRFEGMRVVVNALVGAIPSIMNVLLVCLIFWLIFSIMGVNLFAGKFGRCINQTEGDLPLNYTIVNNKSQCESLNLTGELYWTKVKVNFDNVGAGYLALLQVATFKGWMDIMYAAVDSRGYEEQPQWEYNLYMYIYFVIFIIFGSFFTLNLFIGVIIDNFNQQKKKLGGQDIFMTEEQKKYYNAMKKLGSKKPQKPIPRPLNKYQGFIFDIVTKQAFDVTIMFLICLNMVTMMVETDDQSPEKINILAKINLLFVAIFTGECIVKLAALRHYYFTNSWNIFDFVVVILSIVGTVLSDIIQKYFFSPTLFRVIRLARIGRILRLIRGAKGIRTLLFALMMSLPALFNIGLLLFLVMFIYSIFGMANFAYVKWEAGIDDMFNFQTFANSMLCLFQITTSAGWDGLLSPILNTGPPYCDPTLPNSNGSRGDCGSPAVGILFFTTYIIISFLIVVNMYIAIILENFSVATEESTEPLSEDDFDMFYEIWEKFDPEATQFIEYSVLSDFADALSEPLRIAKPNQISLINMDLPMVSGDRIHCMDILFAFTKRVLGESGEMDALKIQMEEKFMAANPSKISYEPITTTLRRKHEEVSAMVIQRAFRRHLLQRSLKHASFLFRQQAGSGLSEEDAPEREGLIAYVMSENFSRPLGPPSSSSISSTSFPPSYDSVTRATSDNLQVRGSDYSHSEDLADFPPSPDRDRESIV

As to `COc1nc(N(CC(C)(C)F)c2cc(Cl)c(F)cc2F)cnc1C(=O)[C@H]1C[C@@H]1C(=O)O` [AZD-9898], the fraction unbound in series [1] was found to be 0.059; in series [5], 0.03. Also, in series [2], the half-life was 1560 min. This molecule had a logD in [3] of 1.1. Moreover, the solubility thermodynamic at 24 h in series [4] came out at 2080 µM (≈ 952 µg/mL). The molecule further had a clearance in series [6] of 0.6 mL/min/kg. Also, the Vd in series [7] is 5.3 L/kg; in series [8] it was 0.6 L/kg. The IC50 in series [9] was over 100 µM; on Cytochrome P450 2C9 it was over 30 µM; at Cytochrome P450 3A4 it was over 30 µM; at Cytochrome P450 2D6, over 30 µM. Moreover, the INH in [10] was 3.2 µM. In addition, the Activity entry with Blood was “Dose-dependent effect”. Moreover, the “inhibition (INH)” value in [11], in series [12] and in series [13] was “Not Active” in each case. Moreover, the fIC50 in [14] was found to be 6.2 nM.
